# Measurements reported in patent US20080214555A1 (priority 2007, published 2008).
# Like-named read-outs stand apart in the source and are kept apart here.
# Assays:
# [1] = system: patients with non-ST elevation acute coronary syndrome; assay: MERLIN-TIMI 36: Seattle Angina Questionnaire scores at 4 months; type: in vivo, human; conditions: ITT
# Description: The MERLIN-TIMI 36 secondary efficacy endpoint (ITT) Seattle Angina Questionnaire scores at 4 months for anginal frequency scale are shown in Table 16 below, and scores for physical limitation scale are shown in Table 17 below.
# [2] = system: patients with non-ST elevation acute coronary syndrome; assay: MERLIN-TIMI 36: ischemia on Holter / continuous ECG (CECG); type: in vivo, human
# Protocol: Median clinical follow-up was 12 months. At randomization, 3-lead CECG monitoring was initiated for median duration of 6.9 days. Recurrent ischemia on CECG was defined as ST dep >1 mm from baseline lasting >1 min. The TRS is calculated as the sum of seven presenting characteristics: 1) age >65 yrs, 2) >3 cardiac risk factors, 3) documented coronary artery disease, 4) recent severe angina, 5) ST deviation >0.5 mm, 6) elevated cardiac markers, and 7) prior aspirin use and is categorized as low (0-2), moderate (3-4), or high (>4) risk.
# The data for total duration (minutes) of ischemia on Holter between randomization and 72 hours from MERLIN-TIMI 36 is shown in Table 19 below.
# At randomization, 6355 patients (99%) had 3-lead CECG monitoring initiated (median duration 6.9 days). The primary CECG endpoint was the rate of ST dep ≧1 mm from baseline lasting ≧1 minute with heart rate at onset <100 bpm. Exploratory analyses using ST dep ≧0.5 mm were also performed.
# [3] = system: patients with non-ST elevation acute coronary syndrome; assay: MERLIN-TIMI 36: HbA1c and hyperglycemia; type: in vivo, human
# Description: HbA1c data are reported as least-square means. Patients categorized as “diabetic” had been diagnosed as diabetic before or at the time of randomization. Patients categorized as “no diabetes” had not been diagnosed as diabetic before or at the time of randomization. Some patients characterized as “no diabetes” may have been diagnosed as “diabetic” during the trial; however, these patients are still listed in the “no diabetes” category in FIG. 4B.
# [4] = system: patients with non-ST elevation acute coronary syndrome
# [5] = background statement; cited from earlier work
# [6] = Baseline (in-hospital visit prior to randomization), all patients dosed, n = 3268
# [7] = Diabetes at enrollment, n = 1098, Baseline
# [8] = Diabetes at enrollment, n = 1098, Final Visit
# [9] = Diabetes at enrollment, n = 1098, Month 4
# [10] = Diabetes at enrollment, n = 1098, Month 8
# [11] = Diabetes at enrollment, n = 1098, Month 16
# [12] = Final Visit, all patients dosed, n = 3268
# [13] = Month 4, all patients dosed, n = 3268
# [14] = Month 8, all patients dosed, n = 3268
# [15] = Month 16, all patients dosed, n = 3268
# [16] = No Diabetes at enrollment, n = 2170, Baseline
# [17] = No Diabetes at enrollment, n = 2170, Final Visit
# [18] = No Diabetes at enrollment, n = 2170, Month 4
# [19] = No Diabetes at enrollment, n = 2170, Month 8
# [20] = No Diabetes at enrollment, n = 2170, Month 16
# [21] = at 4 months, 4306 patients with serial measurements
# [22] = patients with DM treated with ranolazine
# [23] = 30 days, all patients dosed, n = 3268
# [24] = 60 days, all patients dosed, n = 3268
# [25] = 360 days, all patients dosed, n = 3268
# [26] = 540 days, all patients dosed, n = 3268
# [27] = endpoint death or CV hospitalization, all patients dosed, n = 3268
# [28] = ranolazine vs placebo, all patients dosed
compound,measurement,setting,value
"COc1ccccc1OCC(O)CN1CCN(CC(=O)Nc2c(C)cccc2C)CC1 (racemic) [Ranolazine, (±)-N-(2,6-dimethylphenyl)-4-[2-hydroxy-3-(2-methoxyphenoxy)-propyl]-1-piperazineacetamide]","Seattle Angina Questionnaire physical limitation scale score, 25th percentile-75th percentile",[1]; N 2339,55.6-94.4
same,"Seattle Angina Questionnaire physical limitation scale score, Mean (SEM)",[1]; N 2339,72.8 (0.5)
same,"Seattle Angina Questionnaire physical limitation scale score, Median",[1]; N 2339,77.8
same,"Seattle Angina Questionnaire physical limitation scale score, Min-Max",[1]; N 2339,0-100
same,"Seattle Angina Questionnaire anginal frequency scale score, 25th percentile-75th percentile",[1]; N 2558,80-100
same,"Seattle Angina Questionnaire anginal frequency scale score, Mean (SEM)",[1]; N 2558,84.3 (0.4)
same,"Seattle Angina Questionnaire anginal frequency scale score, Median",[1]; N 2558,100
same,"Seattle Angina Questionnaire anginal frequency scale score, Min-Max",[1]; N 2558,0-100
same,Rate of primary CECG endpoint events,[2]; >72 hours after randomization,11.6%
same,"RR, primary CECG endpoint events","[2]; >72 hours after randomization, ranolazine vs placebo",0.86
same,"Rate of primary CECG endpoint (ST dep ≧1 mm lasting ≧1 minute, heart rate at onset <100 bpm)",[2]; entire 7 day recording,19.2%
same,Rate of CECG ischemic events,[2]; lower ischemic threshold of 0.5 mm,22.9
same,"RR, CECG ischemic events","[2]; lower ischemic threshold of 0.5 mm, ranolazine vs placebo",0.91
same,"Patients with HbA1C ≧7%, number",[3]; [6],655
same,"Patients with HbA1C ≧7%, proportion",[3]; [6],(24%)
same,"Patients with HbA1C ≧7%, number",[3]; [7],542
same,"Patients with HbA1C ≧7%, proportion",[3]; [7],(57%)
same,"Patients with HbA1C ≧7%, number",[3]; [8],324
same,"Patients with HbA1C ≧7%, proportion",[3]; [8],(42%)
same,"Patients with HbA1C ≧7%, number",[3]; [9],326
same,"Patients with HbA1C ≧7%, proportion",[3]; [9],(41%)
same,"Patients with HbA1C ≧7%, number",[3]; [10],263
same,"Patients with HbA1C ≧7%, proportion",[3]; [10],(44%)
same,"Patients with HbA1C ≧7%, number",[3]; [11],63
same,"Patients with HbA1C ≧7%, proportion",[3]; [11],(48%)
same,"Patients with HbA1C ≧7%, number",[3]; [12],416
same,"Patients with HbA1C ≧7%, proportion",[3]; [12],(17%)
same,"Patients with HbA1C ≧7%, number",[3]; [13],404
same,"Patients with HbA1C ≧7%, proportion",[3]; [13],(17%)
same,"Patients with HbA1C ≧7%, number",[3]; [14],335
same,"Patients with HbA1C ≧7%, proportion",[3]; [14],(18%)
same,"Patients with HbA1C ≧7%, number",[3]; [15],84
same,"Patients with HbA1C ≧7%, proportion",[3]; [15],(20%)
same,"Patients with HbA1C ≧7%, number",[3]; [16],113
same,"Patients with HbA1C ≧7%, proportion",[3]; [16],(6%)
same,"Patients with HbA1C ≧7%, number",[3]; [17],92
same,"Patients with HbA1C ≧7%, proportion",[3]; [17],(6%)
same,"Patients with HbA1C ≧7%, number",[3]; [18],78
same,"Patients with HbA1C ≧7%, proportion",[3]; [18],(5%)
same,"Patients with HbA1C ≧7%, number",[3]; [19],72
same,"Patients with HbA1C ≧7%, proportion",[3]; [19],(6%)
same,"Patients with HbA1C ≧7%, number",[3]; [20],21
same,"Patients with HbA1C ≧7%, proportion",[3]; [20],(7%)
same,HbA1c (least-square mean),[3]; [21],5.9%
same,HbA1c change from baseline,[3]; [21],−0.30%
same,Worsening of hyperglycemia (>1% increase in HbA1c),"[3]; diabetic patients, by 1 year of follow-up",14.2%
same,"HR, worsening of hyperglycemia","[3]; diabetic patients, ranolazine vs placebo, 95% CI 0.51, 0.77",0.63
same,Reported hypoglycemia,[3]; patients with DM,3%
same,HbA1c after decline,[3]; [22],6.8%
same,HbA1c Δ,[3]; [22],−0.64%
same,HbA1c before decline,"[3]; patients with DM treated with ranolazine, starting value",7.2%
same,Patients achieving an HbA1c <7%,"[3]; patients with DM, at 4 months",59%
same,Incidence of new fasting glucose >110 mg/dL or HbA1c ≧6%,[3]; patients without DM at randomization or baseline (fasting glucose <100 mg/dL and HbA1c <6%),31.8%
same,"HR, new fasting glucose >110 mg/dL or HbA1c ≧6%","[3]; patients without DM, ranolazine vs placebo, 95% CI 0.53, 0.88",0.68
same,Incidence (Kaplan-Meier estimate) of death from any cause,[4]; [23],1.8%
same,Incidence (Kaplan-Meier estimate) of death or CV hospitalization,[4]; [23],9.2%
same,Incidence (Kaplan-Meier estimate) of death from any cause,[4]; [24],2.2%
same,Incidence (Kaplan-Meier estimate) of death or CV hospitalization,[4]; [24],15.0%
same,Incidence (Kaplan-Meier estimate) of death from any cause,"[4]; 180 days, all patients dosed, n = 3268",3.4%
same,Incidence (Kaplan-Meier estimate) of death from any cause,[4]; [25],5.3%
same,Incidence (Kaplan-Meier estimate) of death or CV hospitalization,[4]; [25],32.8%
same,Incidence (Kaplan-Meier estimate) of death from any cause,[4]; [26],7.0%
same,Incidence (Kaplan-Meier estimate) of death or CV hospitalization,[4]; [26],37.6%
same,Symptomatic documented arrhythmias,[4]; Example 7,3.0%
same,"Clinically reported sudden cardiac death, number",[4]; Example 8,56
same,Pts with events: death from any cause (safety endpoint),"[4]; all patients dosed, n = 3268",172
same,Pts with events: first occurrence of death or CV hospitalization (safety endpoint),"[4]; all patients dosed, n = 3268",1037
same,"Symptomatic documented arrhythmias: Bradyarrhythmias, %","[4]; all patients dosed, n = 3268",1.0%
same,"Symptomatic documented arrhythmias: Bradyarrhythmias, number","[4]; all patients dosed, n = 3268",34
same,"Symptomatic documented arrhythmias: Cardiac arrest NOS, %","[4]; all patients dosed, n = 3268",0.3%
same,"Symptomatic documented arrhythmias: Cardiac arrest NOS, number","[4]; all patients dosed, n = 3268",10
same,"Symptomatic documented arrhythmias: Pts. with Arrhythmias - Overall, %","[4]; all patients dosed, n = 3268",3.0%
same,"Symptomatic documented arrhythmias: Pts. with Arrhythmias - Overall, number","[4]; all patients dosed, n = 3268",99
same,"Symptomatic documented arrhythmias: Supraventricular arrhythmias, %","[4]; all patients dosed, n = 3268",1.2%
same,"Symptomatic documented arrhythmias: Supraventricular arrhythmias, number","[4]; all patients dosed, n = 3268",38
same,"Symptomatic documented arrhythmias: Ventricular arrhythmias, %","[4]; all patients dosed, n = 3268",0.7%
same,"Symptomatic documented arrhythmias: Ventricular arrhythmias, number","[4]; all patients dosed, n = 3268",22
same,"Endpoint-defining events: CV hospitalization, % of pts with events",[4]; [27],89.3%
same,"Endpoint-defining events: CV hospitalization, number",[4]; [27],926
same,"Endpoint-defining events: Death, % of pts with events",[4]; [27],10.7%
same,"Endpoint-defining events: Death, number",[4]; [27],111
same,"HR, total mortality","[4]; ranolazine vs placebo, 95% CI 0.80-1.22",0.99
same,"Relative risk (SE), death from any cause",[4]; [28],0.988 (0.11)
same,"Relative risk (SE), death or CV hospitalization",[4]; [28],0.981 (0.04)
same,Symptomatic documented arrhythmias,[4]; women,2.6%
same,Prolonging the QTc interval,[5],2 to 5 ms
